Results published in patent US7144862B2, “Orally administered peptides to ameliorate atherosclerosis” (The Regents of the University of California, priority 2000, dated 2006).

How the values were obtained:
[1] = mouse, in vivo, ip
Protocol: (§2) Mice were acquired at six weeks of age, and randomized into groups of 20, except that a negative control group of 10 received no treatments and was given standard rodent chow. At eight weeks of age, the treatment groups were placed on a modified Thomas-Hartroft atherogenic diet (#TD88051; Teklad, Madison, Wis.), and injections were begun. […] Animals were injected intraperitoneally daily for 16 weeks, including weekends and holidays.
(§3) At the end of the study (week 16), at the last bleeding, the heart and the liver were excised. […] The livers were removed and weighed.

[2] = DSC, bilayer to hexagonal phase transition of DiPoPE; assay type: physicochemical; conditions: heating scan rate 37°/h
Protocol: (§1) A known amount of phospholipid was dissolved in chloroform. For one set of samples, peptide was dissolved in methanol and added to a solution of DiPoPE in chloroforn/methanol (2:1, v:v). For both, pure lipid samples and the organic solutions of lipid and peptide, solvent was removed under a slow stream of nitrogen. Residual solvent was removed under vacuum. […] For DMPC, four consecutive scans with a 60 minute equilibration time between scans were taken. DSC thermograms were analyzed using the software provided by MicroCal Inc., Amherst, Mass., and Origin, version 5.0.
In the current study we prepared the peptide-lipid mixtures in two ways. One was by adding the peptide in organic solvent to the lipid in organic solvent followed by depositing the material as a film and subsequently hydrating with buffer. In the other method, the peptide and lipid were mixed after each was hydrated separately. If the mixture comes to equilibrium prior to the DSC analysis, it should not matter how the peptide and lipid are originally mixed. However, membrane systems can equilibrate slowly, in which case there may be more peptide in the lipid when it was incorporated at high concentrations into the lipid film.

[3] = DSC, chain melting transition of DMPC; assay type: physicochemical; conditions: DMPC/peptide 100:1 (mol/mol)
Protocol: as §1
The effect of these 18A analogues on the chain melting transition of multilamellar vesicles of DMPC was studied by DSC using peptide-lipid mixtures at 100:1 lipid/peptide molar ratio.

[4] = system: human artery wall cell cocultures; assay: LDL-induced monocyte chemotactic activity with the homologous series of peptides (Example 3); assay type: cell-based; conditions: peptide at 100 μg/ml, LDL 250 μg protein/ml, 8 h
Protocol: Microtitre plates were treated with 0.1% gelatin at 37° C. overnight. HASMC were added at a confluent density of 1×10^5 cells/cm^2. […] HAEC were subsequently added at 2×10^5 cells/cm^2 and were allowed to grow, forming a complete monolayer of confluent HAEC in two days. In all experiments, HAEC and autologous HASMC (from the same donor) were used at passage levels of four to six. […] The cocultures were treated with native LDL(250 μg protein/ml) or presence of HDL (350 μg protein/ml) or peptides for 8 h.

[5] = Survival, toxicity, body and liver weights after 16 weeks of injection
Protocol: as §2, §3

[6] = system: C57BL/6J mice fed an atherogenic diet; assay: Aortic lesion formation, daily intraperitoneal injection for 16 weeks, atherogenic diet; assay type: in vivo, mouse; conditions: 5F 20 μg or MoAI 50 μg daily i.p.
Protocol: The livers were removed and weighed.
Histological evaluations were performed according to the method of Paigen et al. (Paigen et al. (1990) Arteriosclerosis 10: 316–323) with some modifications. Briefly, hearts were fixed for at least one week in the phosphate-buffered formaldehyde solution. After removing the lower ⅔ of the hearts, the remaining tissue was frozen in OCT medium (Tissue-Tek, Miles Inc., Elkhart, Ind.) and sectioned in a cryostat at −20° C. Alternate 20 μm sections were saved on slides, and observed for the beginning of the aortic root. Sections were then collected for an additional 600 μm, or until the aortic cross-section was rounded and the valve cusps were no longer evident. Slides were stained with Oil Red O, and counterstained with hematoxylin. Stained lesion cross-sectional areas were measured in consecutive slides 80 μm apart by image analysis (SigmaScan Pro, SPSS Scientific, Chicago, Ill.), and the average lesion area was determined for each aortic sinus over the 400 μm length (five slides) providing the greatest mean lesion area.

[7] = Circular dichroism, percent helicity; assay type: physicochemical
Protocol: Briefly, spectra were obtained using a cell with a 0.1 cm path length and measurements were taken every nm from 260 nm to 190 nm at 25° C. All the CD spectra were signal averaged by adding four scans, base line corrected and smoothed. Peptide solutions in PBS, pH 7.4, were used at a concentration of 11 μM. Peptide-DMPC complexes (1:20 mol:mol) were used to determine the effect of lipid binding on the helicity of these peptides. These complexes were prepared by adding the appropriate volume of peptide solution to DMPC multilamellar vesicles. DMPC multilamellar vesicles were prepared as follows: A known amount of lipid was dissolved in ethanol and the solvent was removed by evaporating slowly under a thin stream of nitrogen. Residual solvent was removed by storing the lipid film under vacuum overnight. An appropriate volume of PBS, pH 7.4 was added to the thin lipid film to give the required final concentration of DMPC.

[8] = Surface pressure measurements: monolayer exclusion pressure; assay type: physicochemical; conditions: EPC monolayer; reproducibility ± 1 dyn/cm
Protocol: An insoluble monolayer of egg phosphatidylcholine (EPC) was spread at the air-water interface in a Teflon dish at room temperature to give an initial surface pressure (πi) in the range of 5–45 dyn/cm. A solution of peptides in PBS containing 1.5M Gdn. HCl was carefully injected in to the subphase to give a final concentration of 50 μg/dL. The Gdn. HCl was diluted in the subphase to a final concentration of ≦1 mM to allow the peptides to renature. The subphase was stirred continuously and the increase in EPC monolayer surface pressure (Δπ) was recorded until a steady state value was obtained. The value of the initial surface pressure (πi) at which the peptides no longer penetrate the EYPC monolayer i.e. the exclusion pressure (πe), was calculated by extrapolating the πi vs Δπ linear regression fit to Δπ=0 dyn/cm.

[9] = after 16 weeks, atherogenic diet, daily i.p., mean ± SEM

Substance: Ac-DWLKAFYDKVFEKFKEFF-NH2 [Peptide 5F, Ac-D-W-L-K-A-F-Y-D-K-V-F-E-K-F-K-E-F-F-NH2]
- toxicity [1]: No toxicity
- shift in TH of DiPoPE with mol fraction of peptide [2]: linear increase in TH
- TCM(° C.) ([3]; 1.5 mM DMPC, chain melting transition temperature): 23.2 °C
- ΔHCM (kcals/mol) ([3]; enthalpy of the transition): 4.9 kcals/mol
- ΔT1/2 (° C.) ([3]; width at half maximum of the transition): 0.5 °C
- inhibition of LDL-induced monocyte chemotaxis [4]: significant and similar inhibition
- Body Weight [5, 9]: 21.60 ± 0.28 g
- Liver Weight [5, 9]: 1.61 ± 0.04 g
- Liver: Body (percentage) [5, 9]: 7.46 ± 0.23%
- mice died from unexplained causes ([5]; during the prolonged diet studies, groups of 20): one
- mean lesion cross-sectional area compared with PBS-injected animals [6]: significantly lower mean lesion area
- Percent Helicity PBS ([7]; 11 μM peptide in PBS): 55%
- Percent Helicity DMPC ([7]; 11 μM peptide, Peptide: DMPC 1:20 (mol/mol)): 76%
- Monolayer Exclusion Pressure(πc) [8]: 45 dyn/cm
